Tests used:
NKCCl [1] = target: T1, NKCCl (Rattus norvegicus, UniProt E9PTX9); test: Reversal potential of stimulus-evoked GABAA-PSCs in immature CA3 pyramidal cells; format: cell-based
T1 construct: gramicidin perforated patch clamped CA1 pyramidal neuron in an acute hippocampal slice from a P5 rat; from tissue; host or cells: acute hippocampal slices of P3-P6 male Sprague-Dawley rats; CA1 pyramidal neurons
T1 sequence (E9PTX9 1-1203): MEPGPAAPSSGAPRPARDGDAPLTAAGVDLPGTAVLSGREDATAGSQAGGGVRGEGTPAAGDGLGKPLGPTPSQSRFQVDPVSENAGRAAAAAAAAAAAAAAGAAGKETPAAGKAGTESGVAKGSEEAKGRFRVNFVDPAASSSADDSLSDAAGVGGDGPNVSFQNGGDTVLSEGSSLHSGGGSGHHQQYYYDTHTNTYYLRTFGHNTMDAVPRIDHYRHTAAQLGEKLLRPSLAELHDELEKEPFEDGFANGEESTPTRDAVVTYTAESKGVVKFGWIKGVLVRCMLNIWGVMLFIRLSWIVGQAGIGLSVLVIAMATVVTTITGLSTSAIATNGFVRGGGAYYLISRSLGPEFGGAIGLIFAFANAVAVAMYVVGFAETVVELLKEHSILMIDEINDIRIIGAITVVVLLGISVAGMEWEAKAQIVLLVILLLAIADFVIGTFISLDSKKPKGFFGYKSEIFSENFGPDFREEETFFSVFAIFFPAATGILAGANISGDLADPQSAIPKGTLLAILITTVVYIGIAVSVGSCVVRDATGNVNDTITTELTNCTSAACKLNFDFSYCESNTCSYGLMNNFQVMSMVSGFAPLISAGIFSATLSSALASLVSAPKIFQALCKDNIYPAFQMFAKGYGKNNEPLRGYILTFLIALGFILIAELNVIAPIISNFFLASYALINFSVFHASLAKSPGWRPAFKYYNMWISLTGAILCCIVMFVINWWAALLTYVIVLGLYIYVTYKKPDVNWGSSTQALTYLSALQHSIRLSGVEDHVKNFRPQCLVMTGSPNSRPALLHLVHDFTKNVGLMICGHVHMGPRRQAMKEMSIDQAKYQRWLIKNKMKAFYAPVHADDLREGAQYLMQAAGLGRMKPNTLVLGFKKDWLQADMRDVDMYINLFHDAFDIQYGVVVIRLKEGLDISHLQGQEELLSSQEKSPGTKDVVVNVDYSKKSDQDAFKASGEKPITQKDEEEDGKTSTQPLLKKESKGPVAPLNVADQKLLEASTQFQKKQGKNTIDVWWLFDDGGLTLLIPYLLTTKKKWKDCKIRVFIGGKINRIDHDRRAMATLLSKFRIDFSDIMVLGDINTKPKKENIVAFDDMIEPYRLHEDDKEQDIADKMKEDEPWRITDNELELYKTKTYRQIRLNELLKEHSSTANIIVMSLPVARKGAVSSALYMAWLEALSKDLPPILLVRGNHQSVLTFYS
Procedure: Cell cultures, such as pyramidal cells, can be used to examine the effects of a pharmaceutical composition of the present invention on GABAA receptor activation. In one exemplary method, selective inhibition of NKCCl by a pharmaceutical composition of the present invention, bumetanide, was tested to examine the relationship between chloride accumulation in neurons, GABAA receptor activation and NKCC1. Specifically, the reversal potential of electrical stimulus evoked GABAA-receptor mediated post-synaptic currents (GABAA-PSCS) in immature P4-P6 CA3 pyramidal cells of the hippocampus was examined in the presence or absence of bumetanide. Electrical stimulation of the stratum radiatum (7 V, 30 us duration) evoked in control conditions a synaptic response that reversed at −42.4±1.7 mV (n=6) and was close to the reversal potential of spontaneous GABAA-PSCS (−46.1±0.7 mV; n=6, p=0.07). Examples of stimulus evoked postsynaptic currents at different holding potentials for individual pyramidal cell and corresponded current-voltage (I-V) relationship are shown in FIG. 1A. […] In presence of bumetanide, stimulus evoked GABAA-PSCs reversed at −46.1±1.9 mV (n=6, p=0.17). […] This in vitro system can be used to test any of the pharmaceutical compositions of the present invention for modulation of GABAA receptor activation. […]

NKCCl [2] = target: T1, NKCCl; test: Whole-cell voltage clamp, reversal potential of currents elicited by local GABA application (Egaba) in CA1 pyramidal cells; format: cell-based; conditions: in the presence of bumetanide, n=6 cells from 8, p=0.005, control −37±2.72 mV
From the text: In one example, direct effect of bumetanide on Egaba (excitatory GABAA) can be tested. Here, whole-cell voltage clamp recordings to measure the reversal potential of currents elicited by local application of GABA (10 pM, 10 ms pulse duration) in CA1 pyramidal cells were used.
In one example, electrophysiological recordings are gathered from individual slices and subsequently transferred to a conventional submerged-type chamber and continuously superfused with, for example, oxygenated aCSF. Whole-cell recordings were generated. Patch electrodes were used, made by known methods. For whole-cell recording in voltage-clamp mode pipettes were filled with a buffered solution.

[3] = tested on: spontaneous network activity in hippocampal sections; test: Spontaneous network activity in P4-8 hippocampal sections (whole-cell and extracellular field recordings); format: cell-based, rat
Procedure: In another exemplary in vitro method, simultaneous whole-cell voltage-clamp recordings of CA3 pyramidal cells and extracellular field potential recordings in CA3 pyramidal cell layer were performed to analyze the effects of one of the pharmaceutical compositions of the present invention, bumetanide, on spontaneous network activity in the postnatal (P)4-8 hippocampal sections. Spontaneous neuronal network activity is characterized by large polysynaptic currents mediated by activation of GABAA-receptors and synchronous recurrent population bursts, associated with a barrage of high frequency action potentials from multiple cells (FIG. 1C). […] Synchronous network activity reappeared 10-15 min after removal of bumetanide by washing.
In one exemplary method, experimental procedures were carried out on hippocampal slices of postnatal days 5 (P5) to P12 male Wistar rats. Animals were anaesthetized and decapitated and hippocampal slices were prepared by known methods. […]
From the example outlined above, extracellular field potentials were recorded and microelectrodes known in the art were used for simultaneous recordings of multiple unit activity (e.g. MUA; 500 Hz high-pass filter), population field activity in EEG band (1-100 Hz), and fast ripple oscillations (200-600 Hz).).

NKCCl [4] = target: T1, NKCCl; test: Gramicidin perforated patch recording of ECl and Cli in CA1 pyramidal cells of acute hippocampal slices; format: cell-based; conditions: 10 μM bumetanide

SMILES: CCCCNc1cc(C(=O)O)cc(S(N)(=O)=O)c1Oc1ccccc1 [bumetanide, 3-(aminosulfonyl)-5-(butylamino)-4-phenoxybenzoic acid]
- shift in reversal potential of GABAA-PSCs (NKCCl [1]; bumetanide 10 μM application): negative shift
- reversal potential of stimulus evoked GABAA-PSCs (NKCCl [1]; bumetanide 10 μM, P4-P6 CA3 pyramidal cells, n=6, p=0.17, control −42.4±1.7 mV): −46.1±1.9 mV
- Egaba (reversal potential of currents elicited by local application of GABA) (NKCCl [2]): −40.35+2.73 mV
- time until synchronous network activity reappeared after removal by washing ([3]; after bumetanide 10 uM): 10 to 15 min
- synchronous bursts of action potentials ([3]; bath application 10 uM, P4-8 hippocampal sections, n=10): rapidly depressed
- holding current (NKCCl [4]): no change
- ECl (NKCCl [4]; P4-6 CA1 pyramidal cells, n=9, control −67.34±3.78 mV): −80.14±4.61 mV
- lowering of Cli (NKCCl [4]; n=9, P=0.0006): 37±0.05%
- Cli (NKCCl [4]; n=9, control 12.00±1.47 mM): 7.62 ± 1.14 mM

Source: US20070043034A1, “Chlorine Ion Uptake Modulators and Uses Thereof” (priority 2005, published 2007)
